From ChEMBL document CHEMBL3399962, “Design and synthesis of a novel candidate compound NTI-007 targeting sodium taurocholate cotransporting polypeptide [NTCP]-APOA1-HBx-Beclin1-mediated autophagic pathway in HBV therapy” (Bioorg Med Chem, 2015)
Active and inactive are the calls of the source. No cut-off for these calls is given here.

Columns and labels:
[1] = Cytotoxicity against human HepG2.2.15 cells assessed as cell death after 9 days by MTS assay; type: cell-based, HepG2 2.2.15
Hepatitis B virus [2] = assay: Antiviral activity against hepatitis B viral in human HepG2.2.15 cells assessed as surface antigen HBsAg secretion after 9 days by ELISA; type: functional, organism-based; details: HepG2 2.2.15, 216 h
Hepatitis B virus [3] = assay: Antiviral activity against hepatitis B viral in human HepG2.2.15 cells assessed as HBeAg secretion after 9 days by ELISA; type: functional, organism-based; details: HepG2 2.2.15, 216 h
[4] = Selectivity index, ratio of CC50 for human HepG2.2.15 cells to IC50 for decrease in hepatitis B viral surface antigen HBsAg secretion in human HepG2.2.15 cells; type: functional
[5] = Selectivity index, ratio of CC50 for human HepG2.2.15 cells to IC50 for decrease in hepatitis B viral HBeAg secretion in human HepG2.2.15 cells; type: functional
Hepatitis B virus [6] = assay: Antiviral activity against hepatitis B viral in human HepG2.2.15 cells assessed as viral DNA replication after 9 days by real-time PCR analysis (reference value: 6.12 +/- 1.46 AU); type: functional, HepG2 2.2.15
Hepatitis B virus [7] = assay: Antiviral activity against hepatitis B viral in human HepG2.2.15 cells assessed as viral surface antigen HBsAg level after 9 days by ELISA (reference value: 721 +/- 32 pg/ml); type: functional, HepG2 2.2.15
Hepatitis B virus [8] = assay: Antiviral activity against hepatitis B viral in human HepG2.2.15 cells assessed as viral HBcAg level after 9 days by ELISA (reference value: 14.16 +/- 1.92 ng/ml); type: functional, HepG2 2.2.15
[9] = Antiproliferative activity against human HepG2.2.15 cells assessed as cell growth at 20 uM after 0 to 24 hrs by MTT assay; type: cell-based; details: hepg2 2.2.15, 20 µM
HepG2 2.2.15 [10] = assay: Induction of autophagy in HBV-infected human HepG2.2.15 cells assessed as decrease in NTCP level after 12 to 24 hrs by Western blot analysis; type: functional
HepG2 2.2.15 [11] = assay: Induction of autophagy in HBV-infected human HepG2.2.15 cells assessed as decrease in APOA1 level after 12 to 24 hrs by Western blot analysis; type: functional
HepG2 2.2.15 [12] = assay: Induction of autophagy in HBV-infected human HepG2.2.15 cells assessed as decrease in HBx level after 12 to 24 hrs by Western blot analysis; type: functional
[13] = biological target: Sodium/bile acid cotransporter NTCP (Homo sapiens) (UniProt Q14973); assay: Induction of human NTCP receptor inhibition-mediated autophagy in HBV-infected human HepG2.2.15 cells assessed as MDC positive cells at 20 uM after 12 hrs by […] (reference value: 0.60%); set-up: scale not given: the % may be the effect or the level left
Sequence of Sodium/bile acid cotransporter NTCP (Homo sapiens) (Q14973 whole entry, looked up): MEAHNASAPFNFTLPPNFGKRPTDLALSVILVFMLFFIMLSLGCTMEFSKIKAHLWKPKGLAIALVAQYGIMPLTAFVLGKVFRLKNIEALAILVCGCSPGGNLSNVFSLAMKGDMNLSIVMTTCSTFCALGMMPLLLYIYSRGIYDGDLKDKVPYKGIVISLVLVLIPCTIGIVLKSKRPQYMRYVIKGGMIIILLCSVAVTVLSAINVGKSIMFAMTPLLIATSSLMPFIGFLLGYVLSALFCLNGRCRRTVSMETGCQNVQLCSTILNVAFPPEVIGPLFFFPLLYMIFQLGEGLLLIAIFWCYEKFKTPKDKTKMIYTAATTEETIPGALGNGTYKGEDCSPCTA

[14] = biological target: Sodium/bile acid cotransporter NTCP (Homo sapiens) (UniProt Q14973); assay: Induction of human NTCP receptor inhibition-mediated autophagy in HBV-infected human HepG2.2.15 cells assessed as MDC positive cells at 20 uM after 24 hrs by […] (reference value: 0.60%); set-up: scale not given: the % may be the effect or the level left

IC50 (Hepatitis B virus [2])	IC50 (Hepatitis B virus [3])	Activity [13]	Activity [14]	SMILES	CC50 at 216 h [1]	Selectivity Index [4]	Selectivity Index [5]	Activity (Hepatitis B virus [6])	Activity (Hepatitis B virus [7])	Activity (Hepatitis B virus [8])	Activity [9]	inhibition (HepG2 2.2.15 [10])	inhibition (HepG2 2.2.15 [11])	inhibition (HepG2 2.2.15 [12])
> 1000 µM	> 1000 µM			COC(=O)Nc1nc2cc(C(=O)c3ccccn3)ccc2[nH]1	> 1000 µM									
17.9 µM	25.1 µM	9.3%	31.1%	COC(=O)Nc1nc2nc(C(=O)c3ccc(O)c(OC)c3)ccc2[nH]1	197 µM	11	7.86	2.46 a.u.	258 pg/mL	8140 pg/mL	Toxic	Active	Active	Active
> 1000 µM	> 1000 µM			COC(=O)Nc1nc2cc(C(=O)c3ccco3)ccc2[nH]1	> 1000 µM									
29.7 µM	216 µM			COC(=O)Nc1nc2cc(C(=O)c3ccc(O)c(OC)c3)ccc2[nH]1	105 µM	3.55	0.49							
				COC(=O)Nc1nc2cc(C(=O)c3ccc(F)cc3)ccc2[nH]1 [FLUBENDAZOLE]		2.5	4.75	3.76 a.u.	361 pg/mL	10100 pg/mL				
> 1000 µM	> 1000 µM			COC(=O)Nc1nc2ccc(C(=O)c3ccccc3)cc2[nH]1 [MEBENDAZOLE]	> 1000 µM									
245 µM	397 µM			COC(=O)Nc1nc2cc(C(=O)c3cccc(F)c3)ccc2[nH]1	21.2 µM	0.09	0.05							
97.5 µM	479 µM			COC(=O)Nc1nc2cc(C(=O)c3cccc(OC)c3)ccc2[nH]1	117 µM	1.19	0.24							
41.2 µM	167 µM			COC(=O)Nc1nc2nc(C(=O)c3cccc(OC)c3)ccc2[nH]1	78.1 µM	1.89	0.47							
37.3 µM	78.4 µM			COC(=O)Nc1nc2nc(C(=O)c3ccc(OC)c(OC)c3)ccc2[nH]1	102 µM	2.74	1.3							
190 µM	312 µM			COC(=O)Nc1nc2cc(C(=O)c3ccc(OC)c(OC)c3)ccc2[nH]1	48.5 µM	0.25	0.15							

SMILES	IC50 (Hepatitis B virus [2])	IC50 (Hepatitis B virus [3])	Activity [13]	Activity [14]	CC50 at 216 h [1]	Selectivity Index [4]	Selectivity Index [5]	Activity (Hepatitis B virus [6])	Activity (Hepatitis B virus [7])	Activity (Hepatitis B virus [8])	Activity [9]	inhibition (HepG2 2.2.15 [10])	inhibition (HepG2 2.2.15 [11])	inhibition (HepG2 2.2.15 [12])
Nc1ncnc2c1ncn2CCOCP(=O)(O)O [ADEFOVIR]	257 µM	215 µM			490 µM	1.9	2.27	4.12 a.u.	571 pg/mL	12100 pg/mL				
